*1 amine or outer side, *2 acyl side, *3 side chain or, on linkers, in order; H or OH if unused. Where a SMILES comes first, the peptide text is derived from it. Bridges are numbered along the chain shown (N, C = ends). [ ]: non-standard residue; d: D form. NHCH2CMe2S = CC(C)(CN[*:1])S[*:2]
Target: T1, bovine pancreatic trypsin (Bos taurus, UniProt P00760)
T1 construct: from tissue; host or cells: bovine pancreas
T1 sequence (P00760 24-246): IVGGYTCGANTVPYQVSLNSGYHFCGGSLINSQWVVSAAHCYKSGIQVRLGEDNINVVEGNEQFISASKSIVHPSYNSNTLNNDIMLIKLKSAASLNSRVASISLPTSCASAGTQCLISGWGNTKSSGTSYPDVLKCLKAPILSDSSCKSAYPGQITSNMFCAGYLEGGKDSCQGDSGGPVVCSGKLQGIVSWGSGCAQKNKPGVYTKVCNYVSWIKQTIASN
Experiment: Trypsin stability assay (Table 10)
Type: in vitro ADME
Conditions: bovine pancreatic trypsin solution; bovine pancreatic trypsin 2.5 μg/mL, 37° C., One Phase Decay; read-out: Stability (t1/2, mins) Trypsin
Source text: FIG. 20 is a series of graphs showing the stability of selected peptides in a trypsin (left-hand graphs) and plasma (right-hand graphs) stability assay (data normalised to concentration of each peptide at t=0, determined by LCMS, within each substrate; data analysed using One Phase Decay nonlinear regression in Prism software and each experiment performed in triplicate; mean+/−SEM);
Plasma was collected in house from adult mixed-gender Wistar rats, prepared using 2% EDTA as per standard practice. Peptides were added to rat plasma samples at 37° C. (in a water bath) with final concentrations of 100 uM (1:9 peptide in water:plasma) and a 50 μL sample was immediately taken and precipitated in 150 μL cold acetonitrile (9:1 ACN:water). This sample became the baseline, or t=0 min sample. […] At each time point, the 50 μL of plasma collected was immediately added to cold ACN. Each collected plasma sample in ACN was directly vortexed for 30 seconds and then centrifuged at room temperature (13K rpm, 5 min). 150 μL of the supernatant was taken and directly placed in glass HPLC vials for LCMS analysis.
The protocol for the trypsin stability assay was very similar to the plasma stability assay discussed above. The only difference was the use of a trypsin solution (bovine pancreatic trypsin 2.5 μg/mL in NH4HCO3 buffer, pH approx. 8-8.5, 37° C.) instead of rat plasma. Volumes, times and preparation protocols were exactly as mentioned above.

For CC1(C)CNC(=O)C[C@@H](NC(=O)[C@@H](N)Cc2ccc(O)cc2)C(=O)NCC(=O)N[C@@H](Cc2ccccc2)C(=O)N[C@H](C(=O)N[C@@H](CCCNC(=N)N)C(=O)N[C@@H](CCCNC(=N)N)C(N)=O)CSS1 [DP-7-12, c(Tyr-D(Asp)-Gly-Phe-SSa-Arg-Arg)] (H-Y[dD]GFCRR-NH2; linker 2-5 via NHCH2CMe2S), the half-life was under 0.01 min.

From US20220089646A1 (THE UNIVERSITY OF QUEENSLAND, priority 2019, published 2022)
